For 17 compounds, DC50 results are on record in patent US20240066131A1 (Protagonist Therapeutics, Inc., priority 2020, published 2024).

Starred links: 1 amine or outer side, 2 acyl side, 3 side chain; linkers in the order of their positions; H or OH if unused. Non-standard residues stand in square brackets, D forms with d. Residues, ends and D or L forms follow the SMILES beside them. Groups on a side chain read outwards from the residue. *: point of attachment. Ala(1H-tetrazol-5-yl) = N[C@@H](Cc1nnn[nH]1)C(=O)O; C18 diacid = O=C(O)CCCCCCCCCCCCCCCCC(=O)*; X15 = O=C([C@H](CCc1nnn[nH]1)N[*:1])[*:2]; X8 = O=C([C@H](CCc1nn[nH]n1)N[*:1])[*:2]; Dip = N[C@H](C(=O)O)C(c1ccccc1)c1ccccc1; His(τ-Me) = Cn1cnc(C[C@H](N)C(=O)O)c1; Gly(NCH2CH2Ph) = O=C(O)CNCCc1ccccc1; Palmitoyl = CCCCCCCCCCCCCCCC(=O)*; Myristoyl = CCCCCCCCCCCCCC(=O)*; β3hF = N[C@H](CC(=O)O)Cc1ccccc1; NMeL = CN[C@@H](CC(C)C)C(=O)O; hLeu = CC(C)CC[C@H](N)C(=O)O; Isovaleryl = CC(C)CC(=O)*; Octanoyl = CCCCCCCC(=O)*; AEEA = NCCOCCOCC(=O)O; NHBn = c1ccc(CN*)cc1; Ahx = NCCCCCC(=O)O; βAla = NCCC(=O)O A value given as a limit tells only on which side of the number the result lay.

The target in the first assay is T1, ferroportin (Homo sapiens, UniProt Q9NP59).
T1 sequence (Q9NP59 1-571): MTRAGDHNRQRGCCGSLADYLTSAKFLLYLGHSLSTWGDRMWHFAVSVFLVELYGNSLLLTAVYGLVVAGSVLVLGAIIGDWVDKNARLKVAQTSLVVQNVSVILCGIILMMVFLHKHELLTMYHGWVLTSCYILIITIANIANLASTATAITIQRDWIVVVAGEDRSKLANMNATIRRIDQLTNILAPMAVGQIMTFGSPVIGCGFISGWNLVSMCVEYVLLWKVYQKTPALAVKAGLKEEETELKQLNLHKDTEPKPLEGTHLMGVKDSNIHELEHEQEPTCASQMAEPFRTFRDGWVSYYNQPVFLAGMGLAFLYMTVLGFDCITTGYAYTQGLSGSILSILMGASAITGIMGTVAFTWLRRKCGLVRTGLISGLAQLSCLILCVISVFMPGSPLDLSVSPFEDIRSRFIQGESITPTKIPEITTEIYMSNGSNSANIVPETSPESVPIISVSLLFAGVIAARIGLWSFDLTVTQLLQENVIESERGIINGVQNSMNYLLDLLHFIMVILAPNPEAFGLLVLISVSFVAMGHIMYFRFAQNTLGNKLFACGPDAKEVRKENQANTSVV
In words: FPN activity assay: internalization/degradation of ferroportin-GFP in stably transfected HEK293 cells (loss of GFP fluorescence). The class given is cell-based. As to conditions: Table 6A; read-out: FPN EC50. As for the experimental part: Following internalization, the ferroporin protein is degraded.
A retro inverse peptide is a peptide with a reversed sequence in all D amino acids. An example is that Hy-Glu-Thr-His-NH2 becomes Hy-DHis-DThr-DGlu-NH2. The EC50 of these reference compounds for ferroportin internalization/degradation was determined according to the FPN activity assay described above. These peptides served as control standards.
Consider `CCCCCCCCCCCCCCCC(=O)NCCCCCC(=O)NCCCC[C@H](NC(=O)[C@@H](NC(=O)[C@@H](NC(=O)[C@@H]1CCCN1C(=O)[C@@H](NC(=O)[C@H](Cc1cn(C)cn1)NC(=O)[C@@H](NC(=O)[C@H](CCc1nn[nH]n1)NC(=O)CC(C)C)[C@@H](C)O)C(c1ccccc1)c1ccccc1)[C@@H](C)CC)[C@@H](C)CC)C(=O)N[C@H](CC(N)=O)Cc1ccccc1` [compound 117] (Isovaleryl-[X8]T[His(τ-Me)][Dip]PIIK([Ahx-Palmitoyl])[β3hF]-NH2), for which the DC50 stood at 0.101 µM.

Turning to `CC[C@H](C)[C@H](NC(=O)[C@@H](NC(=O)[C@@H]1CCCN1C(=O)[C@@H](NC(=O)[C@H](Cc1c[nH]cn1)NC(=O)[C@@H](NC(=O)[C@H](CCC(=O)O)NC(=O)CNCC(=O)O)[C@@H](C)O)C(c1ccccc1)c1ccccc1)[C@@H](C)CC)C(=O)N[C@@H](CCCCNC(C)=O)C(=O)N[C@H](CC(N)=O)Cc1ccccc1` [compound 71], the DC50 was > 5 µM.

For the compound `CCCCCCCCCCCCCCCC(=O)NCCCCCC(=O)NCCCC[C@H](NC(=O)[C@@H](NC(=O)[C@H](CCC(C)C)NC(=O)[C@@H]1CCCN1C(=O)[C@@H](NC(=O)[C@H](Cc1c[nH]cn1)NC(=O)[C@@H](NC(=O)[C@H](CCC(=O)O)NC(=O)CC(C)C)[C@@H](C)O)C(c1ccccc1)c1ccccc1)[C@@H](C)CC)C(=O)N[C@H](CC(N)=O)Cc1ccccc1` [compound 121] (Isovaleryl-ETH[Dip]P[hLeu]IK([Ahx-Palmitoyl])[β3hF]-NH2), the DC50 stood at 0.15 µM. On the same count and under the same terms, next, `CCCCCCCCCCCCCCCC(=O)NCCCCCC(=O)NCCCC[C@H](NC(=O)[C@@H](NC(=O)[C@H](C)NC(=O)[C@@H]1CCCN1C(=O)[C@@H](NC(=O)[C@H](Cc1c[nH]cn1)NC(=O)[C@@H](NC(=O)[C@H](CCC(=O)O)NC(=O)CC(C)C)[C@@H](C)O)C(c1ccccc1)c1ccccc1)[C@@H](C)CC)C(=O)N(CCc1ccccc1)CC(N)=O` [compound 93] (Isovaleryl-ETH[Dip]PAIK([Ahx-Palmitoyl])[Gly(NCH2CH2Ph)]-NH2): 0.0319 µM; `CCCCCCCCCCCCCCCC(=O)NCCCCCC(=O)NCCCC[C@H](NC(=O)[C@@H](NC(=O)[C@@H](NC(=O)[C@@H]1CCCN1C(=O)[C@@H](NC(=O)[C@H](Cc1c[nH]cn1)NC(=O)[C@@H](NC(=O)[C@H](Cc1nn[nH]n1)NC(=O)CC(C)C)[C@@H](C)O)C(c1ccccc1)c1ccccc1)[C@@H](C)CC)[C@@H](C)CC)C(=O)N[C@H](CC(N)=O)Cc1ccccc1` [compound 113] (Isovaleryl-[Ala(1H-tetrazol-5-yl)]TH[Dip]PIIK([Ahx-Palmitoyl])[β3hF]-NH2): 0.0868 µM. As for `CC[C@H](C)[C@H](NC(=O)[C@H](C)NC(=O)[C@@H]1CCCN1C(=O)[C@@H](NC(=O)[C@H](Cc1cn(C)cn1)NC(=O)[C@@H](NC(=O)[C@H](Cc1nn[nH]n1)NC(=O)CC(C)C)[C@@H](C)O)C(c1ccccc1)c1ccccc1)C(=O)N[C@@H](CCCCNC(C)=O)C(=O)N[C@H](CC(=O)N[C@H](CCCCN)C(=O)N[C@@H](C)C(N)=O)Cc1ccccc1` [compound 39] (Isovaleryl-[Ala(1H-tetrazol-5-yl)]T[His(τ-Me)][Dip]PAIK(Ac)[β3hF][dK]A-NH2), the DC50 was > 3 µM. With `CCCCCCCC(=O)NCCCCCC(=O)NCCCC[C@H](NC(=O)[C@@H](NC(=O)[C@H](C)NC(=O)[C@@H]1CCCN1C(=O)[C@@H](NC(=O)[C@H](Cc1c[nH]cn1)NC(=O)[C@@H](NC(=O)[C@H](CCC(=O)O)NC(=O)CC(C)C)[C@@H](C)O)C(c1ccccc1)c1ccccc1)[C@@H](C)CC)C(=O)N[C@H](CC(N)=O)Cc1ccccc1` [compound 103] (Isovaleryl-ETH[Dip]PAIK([Ahx-Octanoyl])[β3hF]-NH2), the DC50 is 0.162 µM. In the case of `CC[C@H](C)[C@H](NC(=O)[C@H](C)NC(=O)[C@@H]1CCCN1C(=O)[C@@H](NC(=O)[C@H](Cc1c[nH]cn1)NC(=O)[C@@H](NC(=O)[C@H](CCc1nnn[nH]1)NC(=O)CC(C)C)[C@@H](C)O)C(c1ccccc1)c1ccccc1)C(=O)N[C@@H](CCCCNC(C)=O)C(=O)N[C@H](CC(=O)N[C@H](CCCCN)C(=O)N[C@@H](C)C(N)=O)Cc1ccccc1` [compound 38] (Isovaleryl-[X15]TH[Dip]PAIK(Ac)[β3hF][dK]A-NH2), the DC50 amounted to 0.117 µM. Same read-out and setting: under `CCCCCCCCCCCCCCCC(=O)NCCCCCC(=O)NCCCC[C@H](NC(=O)[C@@H](NC(=O)[C@H](CC(C)C)NC(=O)[C@@H]1CCCN1C(=O)[C@@H](NC(=O)[C@H](Cc1c[nH]cn1)NC(=O)[C@@H](NC(=O)[C@H](CCC(=O)O)NC(=O)CC(C)C)[C@@H](C)O)C(c1ccccc1)c1ccccc1)[C@@H](C)CC)C(=O)N(C)[C@@H](CC(C)C)C(N)=O` [compound 140] (Isovaleryl-ETH[Dip]PLIK([Ahx-Palmitoyl])[NMeL]-NH2) stands 0.0324 µM; under `CCCCCCCCCCCCCCCC(=O)NCCC(=O)NCCC(=O)NCCCC[C@H](NC(=O)[C@@H](NC(=O)[C@H](C)NC(=O)[C@@H]1CCCN1C(=O)[C@@H](NC(=O)[C@H](Cc1c[nH]cn1)NC(=O)[C@@H](NC(=O)[C@H](CCC(=O)O)NC(=O)CC(C)C)[C@@H](C)O)C(c1ccccc1)c1ccccc1)[C@@H](C)CC)C(=O)N[C@H](CC(N)=O)Cc1ccccc1` [compound 99] (Isovaleryl-ETH[Dip]PAIK([βAla-βAla-Palmitoyl])[β3hF]-NH2), 0.103 µM. The same measure, in the same setting: next, `CCCCCCCCCCCCCCCC(=O)NCCCCCC(=O)NCCCC[C@H](NC(=O)[C@@H](NC(=O)[C@H](C)NC(=O)[C@@H]1CCCN1C(=O)[C@@H](NC(=O)[C@H](Cc1c[nH]cn1)NC(=O)[C@@H](NC(=O)[C@H](CCC(=O)O)NC(=O)CC(C)C)[C@@H](C)O)C(c1ccccc1)c1ccccc1)[C@@H](C)CC)C(=O)N[C@H](CC(N)=O)Cc1ccccc1` [SEQ ID No. 9, Isovaleric Acid-E-T-H-[Dpa]-P-A-I-[Lys(Ahx_Palm)]-[bhPhe]-NH2] (Isovaleryl-ETH[Dip]PAIK([Ahx-Palmitoyl])[β3hF]-NH2): 0.0319 µM. Same read-out and setting: under `CCCCCCCCCCCCCCCC(=O)NCCCCCC(=O)NCCCC[C@H](NC(=O)[C@@H](NC(=O)[C@H](C)NC(=O)[C@@H]1CCCN1C(=O)[C@@H](NC(=O)[C@H](Cc1c[nH]cn1)NC(=O)[C@@H](NC(=O)[C@H](CCC(=O)O)NC(=O)CC(C)C)[C@@H](C)O)C(c1ccccc1)c1ccccc1)[C@@H](C)CC)C(=O)NCc1ccccc1` [compound 52] (Isovaleryl-ETH[Dip]PAIK([Ahx-Palmitoyl])-NHBn) stands 0.162 µM.

The assay is the same for the next values; noted with them: Table 6B; read-out: FPN IC50.
As for `CCCCCCCCCCCCCCCC(=O)NCCCCCC(=O)NCCCC[C@H](NC(=O)C[C@H](Cc1ccccc1)NC(=O)[C@@H](CCCCN)NC(=O)[C@@H](NC(=O)[C@H](C)NC(=O)[C@@H]1CCCN1C(=O)[C@H](C)NC(=O)[C@H](Cc1c[nH]cn1)NC(=O)[C@@H](NC(=O)[C@H](CCC(=O)O)NC(=O)CC(C)C)[C@@H](C)O)[C@@H](C)CC)C(=O)N[C@H](CCCCN)C(=O)N[C@@H](C)C(N)=O` [compound 151] (Isovaleryl-ETHAPAI[dK][β3hF]K([Ahx-Palmitoyl])[dK]A-NH2), the DC50 is > 3 µM.

Still in this assay, the particulars now being: ferroportin-GFP HEK293 cells, compound incubated at least 18 hours; read-out: FPN IC50.
As for `CC[C@H](C)[C@H](NC(=O)[C@H](C)NC(=O)[C@@H]1CCCN1C(=O)[C@@H](NC(=O)[C@H](Cc1c[nH]cn1)NC(=O)[C@@H](NC(=O)[C@H](CCCCNC(=O)COCCOCCNC(=O)COCCOCCNC(=O)CCCCCNC(=O)CCCCCCCCCCCCCCCCC(=O)O)NC(C)=O)[C@@H](C)O)C(c1ccccc1)c1ccccc1)C(=O)N[C@H](CCCCN)C(=O)N[C@H](CC(N)=O)Cc1ccccc1` [compound 234] (Ac-K([AEEA-AEEA-Ahx-C18 diacid])TH[Dip]PAI[dK][β3hF]-NH2), the DC50 was > 3 µM.

On to `CCCCCCCCCCCCCCCC(=O)NCCCCCC(=O)NCCCC[C@H](NC(=O)[C@@H](NC(=O)[C@H](CC(C)C)NC(=O)[C@@H]1CCCN1C(=O)[C@@H](NC(=O)[C@H](Cc1c[nH]cn1)NC(=O)[C@@H](NC(=O)[C@H](CCC(=O)O)NC(=O)CC(C)C)[C@@H](C)O)C(c1ccccc1)c1ccccc1)[C@@H](C)CC)C(=O)N[C@@H](CC(C)C)C(N)=O` [compound 205] (Isovaleryl-ETH[Dip]PLIK([Ahx-Palmitoyl])L-NH2), for which the DC50 came to 0.0374 µM. Still for that read-out and setting: next, `CCCCCCCCCCCCCC(=O)NCCCCCC(=O)NCCCC[C@H](NC(=O)[C@@H](NC(=O)[C@H](C)NC(=O)[C@@H]1CCCN1C(=O)[C@H](Cc1ccccc1)NC(=O)[C@H](Cc1c[nH]cn1)NC(=O)[C@@H](NC(=O)[C@H](CCC(=O)O)NC(=O)CC(C)C)[C@@H](C)O)[C@@H](C)CC)C(=O)N[C@@H](Cc1ccccc1)C(=O)N[C@@H](CCC(=O)O)C(=O)N1CCC[C@H]1C(=O)N[C@@H](CCCNC(=N)N)C(=O)N[C@@H](CO)C(=O)N[C@@H](CCCCN)C(=O)NCC(=O)N[C@H](C)C(N)=O` [compound 246] (Isovaleryl-ETHFPAIK([Ahx-Myristoyl])FEPRSKG[dA]-NH2): 1.07 µM. In the case of `CCCCCCCCCCCCCCCC(=O)NCCCCCC(=O)NCCCC[C@H](NC(C)=O)C(=O)N[C@H](C(=O)N[C@@H](Cc1c[nH]cn1)C(=O)N[C@H](C(=O)N1CCC[C@H]1C(=O)N[C@@H](C)C(=O)N[C@H](C(=O)N[C@H](CCCCN)C(=O)N[C@H](CC(N)=O)Cc1ccccc1)[C@@H](C)CC)C(c1ccccc1)c1ccccc1)[C@@H](C)O` [compound 201] (Ac-K([Ahx-Palmitoyl])TH[Dip]PAI[dK][β3hF]-NH2), the DC50 was > 3 µM.
